In patent US20200055871A1, “ACTIVATORS OF THE RETINOIC ACID INDUCIBLE GENE "RIG-I" PATHWAY AND METHODS OF USE THEREOF” (Kineta Immuno-Oncology LLC, priority 2018, published 2020):

Experiments:
[1] = test system: RIG-I deficient CT26 RIG-I−/− cells; assay: CXCL10 secretion by RIG-I deficient CT26 RIG-I−/− cells (ELISA); assay type: cell-based, murine; details: compound 5 to 20 μM, 24 h
Protocol: (§1) The CT26 murine colon carcinoma cell line (ATCC) was used to evaluate the induction of CXCL10 secretion. CXCL10 is an important chemokine in tumor immune biology that recruits tumor-specific T cells to the tumor. To confirm that compound-mediated CXCL10 production was RIG-I specific, RIG-1 deficient CT2-RIG-I−/−cells were generated by Kineta Inc. using CRISPR technology.
(§2) CT26 cells were seeded at a density of 1×10^4 cells per well on a 96-well tissue culture plate in 100 μL of cell culture and cells were incubated at 37° C. and 5% CO2 for 24 hr. Next, CT26 cells were treated with compounds at the indicated concentrations. CXCL10 was quantified by ELISA from supernatants taken 24 h after compound stimulation by use of the CXCL10 Duo Set ELISA kit (Cat #DY466, R&D, Minneapolis, Minn., USA) according to the manufacturer's instructions.
(§3) CXCL10 secretion by CT26 cells in response to compounds (in an amount of 5 to 20 μM) of the present disclosure is shown in Table 8. The compound-induced CXCL10 production was RIG-I dependent, since none of the compounds mediated CXCL10 secretion in RIG-I deficient CT26 RIG-I−/−cells (about 0 pg/mL of CXCL10, or below the level of quantitation). The compounds (10 μM, *20 μM, **5 μM) are indicated in the table as follows: “≠” indicates less than 100 pg/mL; “+” indicates 100-199 pg/mL; “++” indicates 200-399 pg/mL; “+++” indicates 400-799 pg/mL; “++++” indicates 800 to 1599 pg/mL; “+++++” indicates greater than or equal to 1600 pg/ml.

[2] = test system: murine CT26 colon carcinoma cells; assay: RIG-I dependent CXCL10 secretion by CT26 cells (ELISA); assay type: cell-based; details: supernatant 24 h after stimulation
Protocol: as §1, §2, §3

[3] = test system: IRF3 signaling pathway in THP1-Lucia™ ISG cells; assay: THP1-Lucia ISG reporter assay: induction of IRF3-dependent gene expression (secreted luciferase); assay type: cell-based, human; details: Homo sapiens, THP1-Lucia ISG, PMA-differentiated cells, 18 h after stimulation, read-out: fold increase of IRF3-dependent luciferase activity over background, THP1 ISG; for fold induction at 10 µM: 10 μM compound; for fold induction at 20 µM: 20 μM compound (*)
Protocol: The compounds were evaluated in the THP1-Lucia™ ISG (interferon stimulated genes) reporter assay to determine if the compounds activate the IRF3 signaling pathway. The THP1-Lucia™ cells (InvivoGen) express the secreted luciferase (Lucia) reporter gene under the control of an IRF-inducible promoter. The reporter cell line was developed from human monocytic leukemia THP-1 cells.
The promoter was comprised of five IFN-stimulated response elements (ISRE) fused to an ISG54 minimal promoter which is unresponsive to NF-kB or AP-1 pathways. […] The IRF3-deficient THP1-Lucia™ ISG IRF3−/−reporter cell line was generated by CRISPR technology from the parent THP1-Lucia™ ISG reporter cell line.
THP1-Lucia™ ISG cells and IRF3-deficient THP1-Lucia™ ISG IRF3−/−cells were differentiated with PMA (100 ng/ml) and stimulated with compounds at the indicated concentrations (5 to 20 μM), positive control, or not treated (background). Luciferase secretion was quantified using the QUANTI-Luc luciferase assay system (InvivoGen) 18 h after stimulation. Data are shown as fold increase luciferase activity over background in Table 7 and represent the IRF3-dependent ISG54 promoter activity by the THP1-Lucia™ ISG cells in response to compounds. […] The fold increase of compounds (10 μM, *20 μM, **5 μM) induced IRF3 dependent luciferase activity is indicated as follows: “≠” indicates less than 2.4 fold increase; “+” indicates a 2.4-4.9 fold increase; “++” indicates a 5-9.9 fold increase; “+++” indicates a 10-19 fold increase; “++++” indicates a 20-39 fold increase; “+++++” indicates greater than or equal to 40 fold increase.

SMILES | CXCL10 secretion, CT26 RIG-I−/− [1] | CXCL10 secretion, CT26 ([2]; 10 μM compound) | fold induction at 10 µM [3] | CXCL10 secretion, CT26 ([2]; 20 μM compound (*)) | fold induction at 5 µM ([3]; 5 μM compound (**)) | fold induction at 20 µM [3]
O=C(Nc1nc2ccc3scnc3c2s1)c1ccc(-c2ccccc2)cc1OCCCCN1CCOCC1 [Example 38, N-{3,10-dithia-5,12-diazatricyclo[7.3.0.0^2,^6]dodeca-1,4,6,8,11-pentaen-4-yl}-3-[4-(morpholin-4-yl)butoxy]-[1,1′-biphenyl]-4-carboxamide] | − | +++ (400-799 pg/mL) | 5 to 9.9 |  |  | 
Cn1ccc2ccc(C(=O)Nc3nc4ccc5scnc5c4s3)cc21 [Example 20, N-{3,10-dithia-5,12-diazatricyclo[7.3.0.0^2,^6]dodeca-1,4,6,8,11-pentaen-4-yl}-1-methyl-1H-indole-6-carboxamide] | − | +++ (400-799 pg/mL) | 10 to 19 |  |  | 
O=C(Nc1nc2ccc3scnc3c2s1)c1cc2ccccc2cc1OCCCCN1CCOCC1 [Example 28, N-{3,10-dithia-5,12-diazatricyclo[7.3.0.0^2,^6]dodeca-1,4,6,8,11-pentaen-4-yl}-3-[4-(morpholin-4-yl)butoxy]naphthalene-2-carboxamide] | − | ++ (200-399 pg/mL) | 2.4 to 4.9 |  |  | 
COc1cc(OC)cc(C(=O)Nc2nc3ccc4sc(C)nc4c3s2)c1 [Example 2, 3,5-dimethoxy-N-{11-methyl-3,10-dithia-5,12-diazatricyclo[7.3.0.0^2,^6]dodeca-1,4,6,8,11-pentaen-4-yl}benzamide] | − |  | 5 to 9.9 | ++++* (800 to 1599 pg/mL) |  | 
COc1nc2c(ccc3nc(NC(=O)c4cc5ccccc5cc4OCCN4CCOCC4)sc32)s1 [Example 29, N-{11-methoxy-3,10-dithia-5,12-diazatricyclo[7.3.0.0^2,^6]dodeca-1,4,6,8,11-pentaen-4-yl}-3-[2-(morpholin-4-yl)ethoxy]naphthalene-2-carboxamide] | − | + (100-199 pg/mL) | 10 to 19 |  |  | 
O=C(Nc1nc2ccc3scnc3c2s1)c1cc2ccccc2cc1OCCNCCO [Example 46, N-{3,10-dithia-5,12-diazatricyclo[7.3.0.0^2,^6]dodeca-1,4,6,8,11-pentaen-4-yl}-3-{2-[(2-hydroxyethyl)amino]ethoxy}naphthalene-2-carboxamide] | − | +++ (400-799 pg/mL) |  |  | 2.4 to 4.9 | 
O=C(Nc1nc2ccc3scnc3c2s1)c1cc2ccccc2cc1OCCCN1CCOCC1 [Example 1, N-{3,10-dithia-5,12-diazatricyclo[7.3.0.0^2,6]dodeca-1,4,6,8,11-pentaen-4-yl}-3-[3-(morpholin-4-yl)propoxy]naphthalene-2-carboxamide] | − | ++++ (800 to 1599 pg/mL) | 2.4 to 4.9 |  |  | 
COc1nc2c(ccc3nc(NC(=O)c4cc5ccccc5cc4OCCN4CCCCC4)sc32)s1 [Example 30, N-{11-methoxy-3,10-dithia-5,12-diazatricyclo[7.3.0.0^2,^6]dodeca-1,4,6,8,11-pentaen-4-yl}-3-[2-(piperidin-1-yl)ethoxy]naphthalene-2-carboxamide] | − | +++ (400-799 pg/mL) | 10 to 19 |  |  | 
O=C(Nc1nc2ccc3scnc3c2s1)c1cc2ccsc2cc1OCCN1CCOCC1 [Example 42, N-{3,10-dithia-5,12-diazatricyclo[7.3.0.0^2,^6]dodeca-1,4,6,8,11-pentaen-4-yl}-6-[2-(morpholin-4-yl)ethoxy]-1-benzothiophene-5-carboxamide] | − |  | < 2.4 | +* (100-199 pg/mL) |  | 
O=C(Nc1nc2ccc3scnc3c2s1)c1cccc([N+](=O)[O-])c1 [Example 9, N-{3,10-dithia-5,12-diazatricyclo [7.3.0.0^2,^6]dodeca-1,4,6,8,11-pentaen-4-yl}-3-nitrobenzamide] | − | +++ (400-799 pg/mL) | 2.4 to 4.9 |  |  | 
CSc1nc2c(ccc3nc(NC(=O)c4ccc5ccccc5c4)sc32)s1 [Example 19, N-[11-(methylsulfanyl)-3,10-dithia-5,12-diazatricyclo[7.3.0.0^2,^6]dodeca-1,4,6,8,11-pentaen-4-yl]naphthalene-2-carboxamide] | − |  | 10 to 19 | +++* (400-799 pg/mL) |  | 
COc1nc2c(ccc3nc(NC(=O)c4cc5ccccc5cc4OCCCCN4CCOCC4)sc32)s1 [Example 32, N-{11-methoxy-3,10-dithia-5,12-diazatricyclo[7.3.0.0^2,^6]dodeca-1,4,6,8,11-pentaen-4-yl}-3-[4-(morpholin-4-yl)butoxy]naphthalene-2-carboxamide] | − | ++ (200-399 pg/mL) | 10 to 19 |  |  | 
COc1cc2ccccc2cc1C(=O)Nc1nc2ccc3scnc3c2s1 [Example 16, N-{3,10-dithia-5,12-diazatricyclo[7.3.0.0^2,^6]dodeca-1,4,6,8,11-pentaen-4-yl}-3-methoxynaphthalene-2-carboxamide] | − | ++ (200-399 pg/mL) | 10 to 19 |  |  | 
CCN(CC)S(=O)(=O)c1ccc(C(=O)Nc2nc3ccc4sc(C)nc4c3s2)cc1 [Example 3, 4-(diethylsulfamoyl)-N-{11-methyl-3,10-dithia-5,12-diazatricyclo[7.3.0.0^2,^6]dodeca-1,4,6,8,11-pentaen-4-yl}benzamide] | − |  |  | ++* (200-399 pg/mL) |  | 5 to 9.9
O=C(Nc1nc2ccc3scnc3c2s1)c1cc2ccccc2cc1OCCC1CCOCC1 [Example 27, N-{3,10-dithia-5,12-diazatricyclo[7.3.0.0^2,^6]dodeca-1,4,6,8,11-pentaen-4-yl}-3-[2-(oxan-4-yl)ethoxy]naphthalene-2-carboxamide] | − | ++ (200-399 pg/mL) |  |  |  | 5 to 9.9
O=C(Nc1nc2ccc3scnc3c2s1)c1ccc2cc(OCCCCN3CCOCC3)ccc2c1 [Example 39, N-{3,10-dithia-5,12-diazatricyclo[7.3.0.0^2,^6]dodeca-1,4,6,8,11-pentaen-4-yl}-6-[4-(morpholin-4-yl)butoxy]naphthalene-2-carboxamide] | − | ++ (200-399 pg/mL) | 5 to 9.9 |  |  | 
O=C(Nc1nc2ccc3scnc3c2s1)c1ccc(-c2ccccc2)cc1 [Example 21, N-{3,10-dithia-5,12-diazatricyclo[7.3.0.0^2,^6]dodeca-1,4,6,8,11-pentaen-4-yl}-[1,1′-biphenyl]-4-carboxamide] | − | + (100-199 pg/mL) | 10 to 19 |  |  | 
CSc1nc2c(ccc3nc(NC(=O)c4cc5ccccc5cc4OCCCN4CCOCC4)sc32)s1 [Example 36, N-[11-(methylsulfanyl)-3,10-dithia-5,12-diazatricyclo[7.3.0.0^2,^6]dodeca-1,4,6,8,11-pentaen-4-yl]-3-[3-(morpholin-4-yl)propoxy]naphthalene-2-carboxamide] | − | +++ (400-799 pg/mL) | 5 to 9.9 |  |  | 
